In article PMC9271048, “Probing strigolactone perception mechanisms with rationally designed small-molecule agonists stimulating germination of root parasitic weeds” (Nature Communications, 2022):
Read-outs that look alike come from different tables or passages of the source.

What was measured:
[1] = target: ShHTL7 (Striga hermonthica, UniProt A0A0M3PNA2); test: ShHTL7-hydrolysis reaction analysis (HPLC); assay type: biochemical; conditions: 10 μM compound, 30 °C, 30 min; for relative percentage of hydrolysis by ShHTL7, source data average: Supplementary Figs. 11, 20a, 24a
Procedure: Compounds 4a, (R)- and (S)-4a, 4g-i, and rac-GR24 were dissolved in DMSO and prepared as stock solution ([…]) just before use. A 200 μL of the reaction solution consisting of PBS buffer (pH 7.3), 10 μM samples, and 10 μg recombinant ShHTL7 or its mutants was incubated at 30 °C for 30 min; with the reaction solution (200 μL) containing PBS buffer (pH 7.3) and 10 μM samples as the blank control[40],[52]. Subsequently, the reaction was terminated by adding 200 μL of methanol, and then the reaction mixture was shaken for 10 s and centrifuged at 5310 × g for 60 s. The supernatant was filtered and the remaining amount of samples was analyzed by HPLC. The relative percentages of hydrolysis were obtained by using the amount of compounds in blank control as reference.
Supplementary Fig. 11. Hydrolysis of 4a, (R)-4a, (S)-4a, 4g-i, and rac-GR24 by ShHTL7 at 30 °C for 30 min. The remaining amounts of compounds in recombinant ShHTL7 protein and buffer solution were determined by HPLC analysis. The relative percentages of hydrolysis were calculated by using the amount of compounds in the buffer as reference. The error bar indicates SD (n = 3 biologically independent experiments).
(§1) (1 picture or pasted object on this page, not shown here)

[2] = Chemical reactivity analysis (HPLC, methanol/PBS pH 7.4); assay type: physicochemical; conditions: for half-life time (t1/2): 1:3 methanol and PBS (10 mM) pH 7.4, HPLC; for half-life time (t1/2), source data average / half-life at 0.5 mM: Supplementary Fig. 10 source data, methanol/PBS pH 7.4, 26 °C; for half-life at 0.5 mM: methanol/phosphate-buffered saline mixture, read-out: half-life time (t1/2), source data average (converted); for reactivity in methanol/PBS: 1:3 methanol and PBS (10 mM) pH 7.4
Procedure: Chemical reactivity is an important factor in the bioactivity of natural and synthetic SLs.
One hundred twenty microliters of sample solution was added to a solution of PBS (10 mM, pH 7.4, 810 μL) and methanol (270 μL). The solution was stirred vigorously for 30 s and then transferred to HPLC vial, and the vial was stored at 26 ± 1 °C. […] The analytical column was Extend-C18 (4.6 mm × 150 mm × 5 μm). The mobile phases were CH3CN and H2O (containing 0.1% HCO2H), VCH3CN:VH2O = 50:50, with a flow rate of 1 mL/min, and an injection volume of 5 μL. The percentage of remaining compounds in the solution was calculated from the peak area. The half-life times (t1/2) of samples were calculated.

[3] = system: Striga hermonthica seeds; test: S. hermonthica seed germination assay; assay type: in vivo; conditions: source data of Fig. 2d, average of 2 or 3; for EC50: Striga hermonthica, 48 h
Procedure: Two hundred mg of Striga hermonthica seeds were surface sterilized in 2% sodium hypochlorite containing 0.02% Tween-20 for 5 min, and then washed five times with sterile MilliQ water. The sterilized Striga seeds were spread on sterile glass fiber-filter papers (Whatman® GF/A, Sigma–Aldrich) in Petri dishes containing filter paper moistened with 3 mL sterile MilliQ water. The Petri dishes were incubated 6–8 days at 30 °C for preconditioning after which the seeds were dried in a laminar sterile air flow for 2 h. The germination bioassay was performed in 0.1% agarose and 0.1 ppm rac-GR24 was used as a positive control. Stocks of rac-GR24 and other compounds were prepared in acetone and diluted before use. Dried preconditioned seeds were added to the agarose containing the relevant compound, which was subsequently divided over three wells of a 12-well Cell Culture Treated Plates (Fisher Scientific, Landsmeer, the Netherlands). The plates were sealed and incubated in the dark at 30 °C for 2 days. The Striga germination rate in % (GR%) was calculated for each replicate using the formula: GR% = (Ngs/Nts) × 100, where Ngs is the number of germinated seeds per well and Nts is the total number of seeds per well. EC50 values of the compounds were calculated using http://www.ic50.tk/index.html.

[4] = system: PaKAI2s (5 KAI2 protein homologs in P. aegyptiaca); test: YLG-based competition assay on KAI2 protein homologs of P. aegyptiaca; assay type: biochemical, Phelipanche aegyptiaca; conditions: Supplementary Fig. 27
Text: In P. aegyptiaca, 5 KAI2s have been proposed as the SL receptors for the regulation of seed germination. […] The high sequence similarity may explain the consistency of these compounds in inducing germination in both S. hermonthica and P. aegyptiaca.
The excitation and emission wavelengths of YLG are 480 and 520 nm, respectively. We used a fluorescence spectrophotometer (CARY Eclipse) to detect the fluorescence intensity change of YLG during the enzymatic hydrolysis assay process. All the testing compounds and YLG were dissolved in DMSO and prepared as stock solutions just before use. […] The changes of fluorescence at 520 nm of each well were recorded every 1 min for 30 min. Using the reaction mixture without adding enzyme and tested compounds as the background control. After subtracting the background hydrolysis, a linear fluorescence increase in 8 min was used for further inspection. The IC50 values were determined via fitting relative inhibition percentages with the varying concentrations of compounds in Microsoft Excel.
Supplementary Fig. 27. Binding of compounds 4a, (R)- and (S)-4a, and 4g-i to the HTL proteins in S. hermonthica and KAI2 protein homologs in P. aegyptiaca. In the competitive inhibitory activity assay, YLG (3 µM) was used as the fluorogenic substrate. Error bar indicates SD (n = 3 biologically independent experiments).
as §1

[5] = KAI2C, YLG competition, read-out: IC50, replicate 1
[6] = KAI2C, YLG competition, read-out: IC50, replicate 2
[7] = KAI2C, YLG competition, read-out: IC50, replicate 3
[8] = KAI2C, average of 3 replicates, read-out: IC50, average
[9] = KAI2d1, YLG competition, read-out: IC50, replicate 1
[10] = KAI2d1, YLG competition, read-out: IC50, replicate 2
[11] = KAI2d1, YLG competition, read-out: IC50, replicate 3
[12] = KAI2d1, average of 3 replicates, read-out: IC50, average
[13] = KAI2d2, YLG competition, read-out: IC50, replicate 1
[14] = KAI2d2, YLG competition, read-out: IC50, replicate 2
[15] = KAI2d2, YLG competition, read-out: IC50, replicate 3
[16] = KAI2d2, average of 3 replicates, read-out: IC50, average
[17] = KAI2d3, YLG competition, read-out: IC50, replicate 1
[18] = KAI2d3, YLG competition, read-out: IC50, replicate 2
[19] = KAI2d3, YLG competition, read-out: IC50, replicate 3
[20] = KAI2d3, average of 3 replicates, read-out: IC50, average
[21] = KAI2d4, YLG competition, read-out: IC50, replicate 1
[22] = KAI2d4, YLG competition, read-out: IC50, replicate 2
[23] = KAI2d4, YLG competition, read-out: IC50, replicate 3
[24] = KAI2d4, average of 3 replicates, read-out: IC50, average

Chain of ShHTL7 (A0A0M3PNA2 entry or part of it): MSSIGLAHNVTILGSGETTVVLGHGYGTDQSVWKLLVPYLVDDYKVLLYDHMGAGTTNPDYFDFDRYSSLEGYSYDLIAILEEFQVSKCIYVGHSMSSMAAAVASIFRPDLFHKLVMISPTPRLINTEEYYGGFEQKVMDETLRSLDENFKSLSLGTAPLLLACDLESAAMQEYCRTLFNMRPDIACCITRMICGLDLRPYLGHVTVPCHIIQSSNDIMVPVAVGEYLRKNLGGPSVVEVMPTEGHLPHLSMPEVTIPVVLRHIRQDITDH

| SMILES | relative percentage of hydrolysis by ShHTL7, source data average [1] [%] | IC50 [4, 5] [µM] | IC50 [4, 6] [µM] | IC50 [4, 7] [µM] | IC50 [4, 8] [µM] | IC50 [4, 9] [µM] | IC50 [4, 10] [µM] | IC50 [4, 11] [µM] | IC50 [4, 12] [µM] | IC50 [4, 13] [µM] | IC50 [4, 14] [µM] | IC50 [4, 15] [µM] | IC50 [4, 16] [µM] | IC50 [4, 17] [µM] | IC50 [4, 18] [µM] | IC50 [4, 19] [µM] | IC50 [4, 20] [µM] | IC50 [4, 21] [µM] | IC50 [4, 22] [µM] | IC50 [4, 23] [µM] | also measured |
| --- | --- | --- | --- | --- | --- | --- | --- | --- | --- | --- | --- | --- | --- | --- | --- | --- | --- | --- | --- | --- | --- |
| CC1=C[C@H](O/C=C2/C(=O)O[C@@H]3c4ccccc4C[C@H]23)OC1=O (racemic) [rac-GR24, reference compound] | 51.9391 | 7.31 | 5.69 | 6.56 | 6.52 | 1.78 | 2.83 | 2.39 | 2.33 | 5.14 | 2.89 | 3.46 | 3.83 | 2.27 | 2.04 | 1.55 | 1.95 | 6.41 | 5.83 | 7.25 | hydrolysis by ShHTL7 [1]: 51.9%; half-life time (t1/2) [2]: 3.0 h; half-life time (t1/2), source data average [2]: 3.031 h; S. hermonthica germination EC50 values, source data average [3]: 10.4655; IC50 [4, 24]: 6.5 µM |
| CC1=CC(OC(=O)N2CCN(C(=O)COc3ccc(Br)cc3C)CC2)OC1=O (stereo not drawn) [4a] | 36.438 | 10.9 | 13.8 | 21.5 | 15.4 | 33.3 | 33.3 | 24.8 | 30.5 | 40.8 | 46.6 | 48.6 | 45.3 | 30.6 | 26.4 | 27.7 | 28.2 | 17.4 | 17.7 | 26.3 | hydrolysis by ShHTL7 [1]: 36.4%; half-life at 0.5 mM [2]: 3.38 h; EC50 [3]: 0.00107 nM; IC50 [4, 24]: 20.5 µM |
| CC1=CC(OC(=O)N2CCN(C(=O)COc3ccc(Br)cc3C)CC2)CC1=O (stereo not drawn) [4g] | 10.7551 | 53.3 | 49.1 | 43 | 48.5 | 27.1 | 24.4 | 23.2 | 24.9 | 62.3 | 72.7 | 74.9 | 70 | 57.1 | 36.6 | 53.9 | 49.2 | 77.3 | 85.3 | 76.1 | reactivity in methanol/PBS [2]: no apparent hydrolysis was observed in 6 days; half-life at 0.5 mM [2]: > 144 h; IC50 [4, 24]: 79.6 µM |
| CC1=CC(OC(=O)N2CCN(C(=O)COc3ccc(Br)cc3C)CC2)N(C)C1=O (stereo not drawn) [4h] | 12.2513 | 23.3 | 36.9 | 38.5 | 32.9 | 24.7 | 22.1 | 27.9 | 24.9 | 71.4 | 67.3 | 71.7 | 70.1 | 30.6 | 41.8 | 41.3 | 37.9 | > 100 | > 100 | > 100 | half-life time (t1/2) [2]: 1.1 h; half-life time (t1/2), source data average [2]: 1.095 h; IC50 [4, 24]: > 100 µM |
| CC1=CC(CC(=O)N2CCN(C(=O)COc3ccc(Br)cc3C)CC2)OC1=O (stereo not drawn) [4i] | -2.582 | 48.7 | 57 | 49.5 | 51.7 | 24 | 16.7 | 20.1 | 20.3 | 54.2 | 57.7 | 57.5 | 56.5 | 51.4 | 41.1 | 40.4 | 44.3 | 30.7 | 31.7 | 26.9 | reactivity in methanol/PBS [2]: no apparent hydrolysis was observed in 6 days; half-life time (t1/2), source data average [2]: >144 h; IC50 [4, 24]: 29.8 µM |
| CC1=C[C@@H](OC(=O)N2CCN(C(=O)COc3ccc(Br)cc3C)CC2)OC1=O [(R)-4a] | 3.081 | 53.2 | 56.3 | 44.7 | 51.4 | > 100 | > 100 | > 100 | > 100 | > 100 | > 100 | > 100 | > 100 | 84.6 | 78.5 | 91.5 | 84.9 | > 100 | > 100 | > 100 | hydrolysis by ShHTL7 [1]: 3.1%; half-life at 0.5 mM [2]: 6.99 h; EC50 [3]: 1.1 nM; IC50 [4, 24]: > 100 µM |
| CC1=C[C@H](OC(=O)N2CCN(C(=O)COc3ccc(Br)cc3C)CC2)OC1=O [(S)-4a] | 40.0583 | 5.99 | 5.59 | 5.14 | 5.57 | 14.8 | 11.8 | 14.3 | 13.6 | 41.7 | 36.2 | 35.4 | 37.8 | 11.9 | 8.47 | 7.99 | 9.45 | 6.05 | 6.25 | 8.45 | hydrolysis by ShHTL7 [1]: 40.1%; half-life at 0.5 mM [2]: 7.71 h; IC50 [4, 24]: 6.92 µM |
